Laboratory results reported in patent publication US20250042925A1, “Improved Compositions and Methods for Targeting Mitochondria in Cancer Cells” (The Medical College of Wisconsin, Inc., priority 2021, published 2025).

Columns and labels:
[1] = system: KPC1242, Panc-1, AsPC-1, HCT-116, MDA-MB-231, OVCAR-4, OVCAR-8 cancer cell lines; assay: Cell growth (IncuCyte confluence) in cancer cell lines; assay type: cell-based, murine, human; conditions: for cell confluency: increasing concentrations 0.1 μM-10 μM, each of the cancer cells
From the text: Murine pancreatic cancer cells KPC1242 (David Tuveson, Cold Spring Harbor), human pancreatic cancer cells, Panc-1 (ATCC: CRL-1469), human breast cancer cells MDA-MB-231 (ATCC: CRM-HTB-26), and human pancreatic stellate cells HPSC (Rosa F. Hwang, MD Anderson cancer) were all cultured in DMEM (Gibco ThermoFisher Scientific, Waltham, MA, Cat #11965084) containing 10% v/v fetal bovine serum (Omega Scientific, Inc., Tarzana, CA, Cat #FB-12). Human pancreatic cancer cells AsPC-1 (ATCC: CRL-1682), human ovarian cancer cells OVCAR-8 (NIH: CVCL-1629), and human ovarian cancer cells OVCAR-4 (NIH: CVCL-1627) were all cultured in DMEM (Gibco, Cat #22400089) containing 10% v/v fetal bovine serum (Omega Scientific). Human colon cancer cells HCT-116 (ATCC: CCL-247) were cultured in McCoy's 5A Modified Medium (Gibco, Cat #16600082) containing 10% v/v fetal bovine serum (Omega Scientific). Human pancreatic duct epithelial cells HPNE (ATCC: CRL-4023) were cultured in DMEM and 200 mM L-Glutamine and 7.5% w/v NaCO3 further supplemented with 15% v/v fetal bovine serum, M3-Base A (Incell, San Antonio, TX), 1M D-Glucose (Gibco Cat #J60067.EQE), 100 μg/mL human EGF (Gibco Cat #PHG0313) and 10 mg/mL puromycin (ThermoFisher, Cat #A1113802).

[2] = system: KPC1242 cells; assay: Seahorse Cell Mito Stress Test (oxygen consumption rate); assay type: cell-based, murine; conditions: 24 hours treatment, increasing concentrations
Protocol: To determine if the newly synthesized variants retain this functional specificity, further studies were conducted to determine if pCF3-MMe effectively impacts mitochondrial function and/or induces bioenergetic stress. KPC1242 cells were treated for 24 hours with increasing concentrations of MMe or pCF3-MMe, and oxygen consumption rate (OCR) was measured as a surrogate for oxidative phosphorylation linked mitochondrial respiration.
(§1) Cells were plated to Seahorse XF96 cell culture microplates at 20,000 cells/well. Stock compounds in DMSO were diluted in RPMI medium to a final concentration in […] volume, incubated at 37° C. for 24 hours, centrifuged at 200×g for 2 minutes, and conditioned medium removed and replaced with serum-free RPMI […]. Oxygen consumption (OCR) and extracellular flux (ECAR) were measured after injections of oligomycin (1 mg/mL), dinitrophenol […], rotenone […], and antimycin A […]. Analysis was performed by normalizing OCR and ECAR readouts to vehicle controls. Complex I and II activity were analyzed after permeabilization of the cells.

[3] = system: mitochondrial respiratory complex I; assay: Complex I derived oxygen consumption in permeabilized cells; assay type: cell-based, murine; conditions: KPC1242 cell line, 24-hour treatment
Protocol: as §1

[4] = system: HPSC cells; assay: TMRE retention (mitochondrial depolarization) by flow cytometry in HPSC; assay type: cell-based, human; conditions: HPSC cell line, 1 hour treatment
Protocol: AsPC-1 and HPSC cells were serum-starved overnight, loaded with tetramethylrhodamine ethyl ester (TMRE), and treated for 1 hour with the indicated concentrations of MMe or pCF3-MMe or, as the vehicle control, DMSO. Mitochondrial TMRE retention was measured by flow cytometry. Representative histograms of n=3 of TMRE fluorescence in AsPC-1 (FIG. 4A) and HPSC (FIG. 4B) in response to treatment. […] Total cellular ATP levels were analyzed using a luminescent ATP detection assay of KPC1242 cells treated with MMe (0.7 μM) or pCF3-MMe (3 μM), and changes in ATP levels were assayed (FIG. 4E). Representatives immunoblot analyses of phosphorylated and total AMPK levels (FIG. 4F) and densitometric quantification (FIG. 4G) in KPC1242 cells treated with MMe (0.7 μM) or pCF3-MMe (3 μM). […] Values are mean±SD from 3 biological replicates. Statistical differences in a, c, and e were determined using Student's t-test (*, p<0.05; **, p<0.01; ***, p<0.001, ns: not significant).
TPP-conjugated compounds are known to effectively target the mitochondria of cancer cells. Thus, the efficacy of pCF3-MMe to effectively target the mitochondria of cancer cells was tested and compared to normal cells using tetramethylrhodamine ethyl ester perchlorate (TMRE), a cell-permeant, positively-charged dye that accumulates in active mitochondria, and is released into the cytosol upon mitochondrial damage. […]

[5] = system: C57BL/6J mice; assay: Tolerability in non-tumor-bearing mice; assay type: in vivo; conditions: for tolerability of repeated injection: daily for 5 consecutive days, 25 μg/mouse to 1 mg/mouse
Protocol: FIGS. 6A-6I show pCF3-MMe inhibits tumor growth with enhanced biosafety relative to MMe. C57BL/6J mice were treated with 1 mg MMe, 1 mg pCF3-MMe, 1 mg MMe, 250 μg MMe, 100 μg MMe, 50 μg MMe, or 25 μg MMe for 6 hours (FIG. 6A) or 5 days (FIG. 6D). Kaplan-Meier survival curve of mice treated for 6 hours (FIG. 6B) or 5 days […], n=3-5. Numbers of mice surviving over time after a single injection (FIG. 6C) or 5 repeated doses (FIG. 6F). Significance was determined using a Mantel-Cox test (*, p<0.05; **, p<0.01). KPC1242 murine pancreatic cancer engrafted mice were treated with 1 mg pCF3-MMe or vehicle 5 days on and 2 days off (FIG. 6G). Tumors isolated from vehicle and treated mice were pictured (FIG. 6H). Tumor volume was measured ex vivo from vehicle and pCF3-MMe-treated mice (FIG. 6I). Values are mean±SD. Significant differences were determined by Student's t-test (*, p<0.05).
With the ability to detect pCF3-MMe in vitro and in vivo in hand, along with anti-tumor properties and decreased toxicity towards non-transformed cells in culture, we next compared the tolerability of pCF3-MMe in mice. Non-tumor-bearing mice received an intraperitoneal injection with decreasing amounts (1 mg, 250 μg, 100 μg, 50 μg, or 25 μg) of unsubstituted MMe or pCF3-MMe. […] […].
Given the strong safety shown from a single injection, further studies were conducted to determine if mice tolerated repeated injection using our published treatment schedule by injecting non-tumor-bearing mice daily for 5 consecutive days with doses ranging from as little as 25 μg/mouse to as much as 1 mg/mouse […] (FIG. 6D). […] Since 1 mg/mouse pCF3-MMe was well tolerated in tumor-free animals, further studies were conducted to test if pCF3-MMe could inhibit tumor growth in vivo. Mice were implanted with murine cancer cells and injected 17 days after engraftment with 1 mg pCF3-MMe (FIG. 6G). […] Taken together, trifluoromethylation of TPP^+ improves the reproducible detection, quantitative measurement, and safety profile of TPP^+-conjugated compounds while retaining potent anti-tumor effects in vivo.

Structure (SMILES)	efficacy compared to MMe in several types of cancer [1]	cell confluency [1]	basal OCR, ATP-linked respiration, and maximal respiratory capacity [2]	complex I derived OCR [3]	TMRE accumulation within the mitochondria [4]	tolerability of repeated injection [5]	mice surviving ([5]; single intraperitoneal injection of 1 mg)	tolerability after a single injection ([5]; single intraperitoneal injection, MMe 250 μg or 1 mg, metformin 1 mg)
N=C(N)NC(=N)NCCCCCCCCCC[P+](c1ccc(C(F)(F)F)cc1)(c1ccc(C(F)(F)F)cc1)c1ccc(C(F)(F)F)cc1.[Br-] [pCF3-MMe, (10-(3-carbamimidoylguanidino)decyl)tris(4-(trifluoromethyl)phenyl)phosphonium bromide]	only a slight change in efficacy	decreased in a concentration-dependent manner	concentration-dependent decrease	decreased complex I derived OCR	did not affect TMRE accumulation	tolerated a 1 mg dose	100%	
N=C(N)NC(=N)NCCCCCCCCCC[P+](c1ccccc1)(c1ccccc1)c1ccccc1.[Br-] [MMe, 10-[(carbamimidamidomethanimidoyl)amino]decyl-triphenylphosphonium bromide, reference compound]		decreased in a concentration-dependent manner	concentration-dependent decrease	decreased complex I derived OCR	did not affect TMRE accumulation	succumbed to 4-fold lower doses		significant and rapid mortality
